Measured values: patent US11166941B2, “Synergistic nutritional compositions for enhancing ATP efficiency” (CELAGENEX RESEARCH (INDIA) PVT. LTD., priority 2020, dated 2021)

Legend:
[1] = cell studies, background statement; cited from earlier work
[2] = system: HepG2 cells; assay: Estimation of cellular respiration by measuring cellular ATP levels (kit method) in HepG2 cells; format: cell-based, Human; details: for % ATP Enhancement / ATP enhancement fold: over control; for Cellular ATP Conc.: HepG2, 2 hours treatment
Experimental: The test substances were evaluated for their in vitro effect on cellular energy by measuring cellular ATP levels in human Hepatocytes (HepG2) cell line. In the given experimental conditions, treatment with the test substances improved cellular ATP levels in vitro [J Immunol Methods; 1986; 89: 271-277]; [Proc Nal Acad Sci USA; 2009; 106: 15651-15656].
For test substance ABC, the test substances were combined in the weight ratio of 1:0.05:0.01. A weight of about 10 mg of ABC was dissolved in 100 μl of DMSO and the volume was made up to 1 ml with DMEM-HG (Dulbecco's Modified Eagle Medium High Glucose). For individual test substances A, B and C, about 10 mg of all the test substances were weighed and separately dissolved with 100 μl of DMSO and volume was made up with DMEM-HG supplemented with 2% inactivated FBS to obtain a stock solution of 1 mg/ml concentration. The samples were further sterilized by 0.22 syringe filtration. Serial two-fold dilutions were prepared from the stock for carrying out further studies.
Cell line was cultured in DMEM-HG supplemented with 10% inactivated Fetal Bovine Serum (FBS), penicillin (100 IU/ml), streptomycin (100 μg/ml) and amphotericin B (5 μg/ml) in a humidified atmosphere of 5% CO2 at 37° C. until confluent. The cells were dissociated with TPVG solution (0.2% trypsin, 0.02% EDTA, 0.05% glucose in PBS). The stock cultures were grown in 25 cm^2 culture flasks and all experiments were carried out in 96 well microtitre plates (Tarsons India Pvt. Ltd., Kolkata, India).
HepG2 cells were trypsinized from stock culture flasks and the cell count was adjusted to 1.0×10^5 cells/ml to obtain a cell suspension that was seeded into a 6-well plate. After 24 hours, cell cultures achieved 70-80% confluency and were treated with different nontoxic concentrations of test substances. After 2 hours of treatment, the plate was washed with phosphate buffer saline. The cellular ATP level determination was performed according to the instructions given in the kit manual (SIGMA, #MAK190). At the end of the experiment, the optical density was read at 570 nm using microplate reader. From the absorbance values, the cellular ATP levels were estimated using kit protocol and the concentration of cellular ATP in treated groups were determined in comparison to the control groups.

[3] = system: HepG2 (Human Hepatocyte) cell line; assay: In vitro cytotoxicity by MTT assay on HepG2 cell line; format: cell-based; details: 72 hours; for IC50 / inhibition at 62.5 µg/mL / inhibition at 125 µg/mL / inhibition at 250 µg/mL / inhibition at 500 µg/mL / inhibition at 1000 µg/mL: Homo sapiens; for IC50: read-out: CTC 50
Experimental: The in vitro cytotoxicity was performed on HepG2 (Human Hepatocyte) cell line to find a non-toxic concentration of the test substances by MTT assay and the potential of test substances to increase the cellular ATP levels was evaluated by kit method. For test substance ABC, the test substances were combined in the weight ratio of 1:0.05:0.01. A weight of about 10 mg of ABC was dissolved in 100 μl of DMSO and the volume was made up to 1 ml with DMEM-HG (Dulbecco's Modified Eagle Medium High Glucose). For individual test substances A, B and C, about 10 mg of all the test substances were weighed and separately dissolved with 100 μl of DMSO and volume was made up with DMEM-HG supplemented with 2% inactivated FBS to obtain a stock solution of 1 mg/ml concentration. The samples were further sterilized by 0.22 syringe filtration. Serial two-fold dilutions were prepared from the stock for carrying out further studies. Cell line was cultured in DMEM-HG supplemented with 10% inactivated Fetal Bovine Serum (FBS), penicillin (100 IU/ml), streptomycin (100 μg/ml) and amphotericin B (5 μg/ml) in a humidified atmosphere of 5% CO2 at 37° C. until confluent. The cells were dissociated with TPVG solution (0.2% trypsin, 0.02% EDTA, 0.05% glucose in PBS). The stock cultures were grown in 25 cm^2 culture flasks and all experiments were carried out in 96 well microtitre plates (Tarsons India Pvt. Ltd., Kolkata, India). The monolayer cell culture was trypsinized and the cell count was adjusted to 1.0×10^5 cells/ml using DMEM-HG containing 10% FBS. To each well of the 96 well microtitre plate, 0.1 ml of the diluted cell suspension was added. After 24 hours, when a partial monolayer was formed, the supernatant was flicked off, the monolayer was washed once with medium and 100 μl of different concentrations of test substances were added. The plate was then incubated at 37° C. for 72 hours in a 5% CO2 atmosphere, and microscopic examination was carried out with observations being noted at a 24-hour interval. After 72 hours of incubation, the drug solutions in the wells were discarded and 50 μl of MTT in PBS was added to each well. The plate was gently shaken and incubated for 3 hours at 37° C. in a 5% CO2 atmosphere. The supernatant was removed and 100 μl of 2-propanol was added and the plate was gently shaken to solubilize the formed formazan. The absorbance was measured using a microplate reader at a wavelength of 540 nm. The percentage growth inhibition was calculated using the standard formula. The concentration of test substances needed to inhibit the growth of the cell by 50% i.e., CTC50 values were generated from the dose-response curves.

[4] = concentration inhibiting cell growth by 50%

## O=C(O)CC(=O)C(=O)O [oxaloacetate]
[1]
  increase muscular endurance: up to 10%

## Oc1ccc(C=Cc2cc(O)cc(O)c2)cc1 [Resveratrol, reference compound]
[2]; HepG2, 100 μg/ml
  % ATP Enhancement: 13%
  ATP enhancement fold: 1.09 fold
[2]; 100 μg/ml
  Cellular ATP Conc.: 5.56 ± 0.37 mM

## manganese (II) sulphate monohydrate [Manganese-Sulphate (C)]
[3]; [4]
  CTC 50: 558.91 ± 6.22 µg/mL
[3]; test conc. 62.5 μg/ml
  % Inhibition: 30.00 ± 0.54%
[3]; test conc. 125 μg/ml
  % Inhibition: 35.54 ± 0.47%
[3]; test conc. 250 μg/ml
  % Inhibition: 42.44 ± 0.81%
[3]; test conc. 500 μg/ml
  % Inhibition: 48.75 ± 0.18%
[3]; test conc. 1000 μg/ml
  % Inhibition: 59.35 ± 0.63%
[2]; HepG2, 500 μg/ml
  enhancement of cellular ATP levels over the control (in words): No significant enhancement
  % ATP Enhancement: 00%
  ATP enhancement fold: 1.00 fold
[2]; 500 μg/ml, listed as C, sulphate monohydrate
  Cellular ATP Conc.: 4.92 ± 0.13 mM
[2]; 500 μg/ml, listed as Manganese sulphate (C), sulphate monohydrate
  Cellular ATP Conc.: 4.92 ± 0.13 mM

## O=C(O)CC(=O)C(=O)O [Stabilized Oxaloacetate (A), Oxaloacetic acid]
[3]; [4]
  IC50: > 1000 µg/mL
[3]; test conc. 62.5 μg/ml
  inhibition at 62.5 µg/mL: 10.7 ± 0.84%
[3]; test conc. 125 μg/ml
  inhibition at 125 µg/mL: 16.6 ± 0.82%
[3]; test conc. 250 μg/ml
  inhibition at 250 µg/mL: 23.8 ± 2.25%
[3]; test conc. 500 μg/ml
  inhibition at 500 µg/mL: 34.4 ± 2.2%
[3]; test conc. 1000 μg/ml
  inhibition at 1000 µg/mL: 40.4 ± 1.22%
[2]; HepG2, 500 μg/ml
  enhancement of cellular ATP levels over the control (in words): No significant enhancement
  % ATP Enhancement: 10%
  ATP enhancement fold: 1.09 fold
[2]; 500 μg/ml
  Cellular ATP Conc.: 5.42 ± 0.25 mM
[2]; 500 μg/ml, listed as Oxaloacetic acid (A)
  Cellular ATP Conc.: 5.42 ± 0.25 mM

## OO [Composition H2O2, H2O2, reference compound]
[2]; HepG2, 20 μM
  ATP enhancement fold: 0.67 fold
[2]; 20 μM
  Cellular ATP Conc.: 1.97 ± 0.45 mM

## O=C(O)CCCC[C@@H]1SC[C@@H]2NC(=O)N[C@@H]21 [D-Biotin (B), Biotin]
[3]; [4]
  IC50: > 1000 µg/mL
[3]; test conc. 62.5 μg/ml
  inhibition at 62.5 µg/mL: 6.13 ± 3.48%
[3]; test conc. 125 μg/ml
  inhibition at 125 µg/mL: 25.1 ± 0.81%
[3]; test conc. 250 μg/ml
  inhibition at 250 µg/mL: 31.2 ± 1.17%
[3]; test conc. 500 μg/ml
  inhibition at 500 µg/mL: 42.9 ± 1.29%
[3]; test conc. 1000 μg/ml
  inhibition at 1000 µg/mL: 47.6 ± 1.45%
[2]; HepG2, 500 μg/ml
  enhancement of cellular ATP levels over the control (in words): No significant enhancement
  % ATP Enhancement: 22%
  ATP enhancement fold: 1.11 fold
[2]; 500 μg/ml, listed as B
  Cellular ATP Conc.: 6.05 ± 0.33 mM
[2]; 500 μg/ml, listed as Biotin (B)
  Cellular ATP Conc.: 6.05 ± 0.33 mM
